ChEMBL document CHEMBL5608200, “Design, synthesis, and evaluation of antitumor activity of 2-arylmethoxy-4-(2-fluoromethyl-biphenyl-3-ylmethoxy) benzylamine derivatives as PD-1/PD-l1 inhibitors” (Eur J Med Chem, 2024)
The source made the active and inactive calls. The calls are words filed in the database; no cut-off is given here.

Experiments:
MC-38 [1] = assay: Antitumor activity against mouse MC38 cells expressing hPD-L1 implanted in PD-1/PD-L1 humanized C57BL/6 mouse assessed as tumor growth inhibition at 50 mg/kg, IG QD administered for 15 days and measured every day by caliper method; type: functional; conditions: MC-38, po, 360 h, time 15 day, read-out: TGI
[2] = Clearance in Sprague-Dawley rat at 50 mg/kg, IG measured upto 48 hrs by LC-MS/MS analysis; type: ADME, organism-based; conditions: in vivo, po
[3] = Cmax in Sprague-Dawley rat at 10 mg/kg, iv measured upto 48 hrs by LC-MS/MS analysis; type: ADME, organism-based; conditions: in vivo
MC-38 [4] = assay: Antitumor activity against mouse MC38 cells expressing hPD-L1 implanted in PD-1/PD-L1 humanized C57BL/6 mouse assessed as tumor growth inhibition at 50 mg/kg, IG; type: functional; conditions: MC-38, po, read-out: TGI
MC-38 [5] = assay: Antitumor activity against mouse MC38 cells expressing hPD-L1 implanted in PD-1/PD-L1 humanized C57BL/6 mouse assessed as upregulation of perforin expression at 50 mg/kg, IG QD administered for 15 days by immunohistochemistry analysis; type: functional, organism-based; conditions: time 15.0 day
MDA-MB-231 = assay: Induction of T-cell mediated apoptosis in human MDA-MB-231 cells cocultured with PMA-stimulated Jurkat T cells assessed as mortality rate at 32 uM incubated for 48 hrs by CCK-8 assay; type: functional
[6] = Toxicity in PD-1/PD-L1 humanized C57BL/6 mouse implanted with mouse MC38 cells expressing hPD-L1 assessed as animal death at 50 mg/kg, IG QD administered for 15 days; type: organism-based, MC-38; conditions: in vivo, po, 360 h, time 15 day
[7] = Cmax in Sprague-Dawley rat at 50 mg/kg, IG measured upto 48 hrs by LC-MS/MS analysis; type: ADME, organism-based; conditions: in vivo, po
[8] = AUC(0 to t) in Sprague-Dawley rat at 50 mg/kg, IG measured upto 48 hrs by LC-MS/MS analysis; type: ADME, organism-based; conditions: in vivo, po
[9] = Clearance in Sprague-Dawley rat at 10 mg/kg, iv measured upto 48 hrs by LC-MS/MS analysis; type: ADME, organism-based; conditions: in vivo
[10] = Tmax in Sprague-Dawley rat at 10 mg/kg, iv measured upto 48 hrs by LC-MS/MS analysis; type: ADME, organism-based; conditions: in vivo
[11] = Toxicity in PD-1/PD-L1 humanized C57BL/6 mouse implanted with mouse MC38 cells expressing hPD-L1 assessed as nephrotoxicity at 50 mg/kg, IG QD administered for 15 days; type: organism-based, MC-38; conditions: in vivo, po, 360 h, time 15 day
MC-38 [12] = assay: Antitumor activity against mouse MC38 cells expressing hPD-L1 implanted in PD-1/PD-L1 humanized C57BL/6 mouse assessed as upregulation of granzyme B expression at 50 mg/kg, IG QD administered for 15 days by immunohistochemistry analysis; type: functional, organism-based; conditions: time 15.0 day
HCC827 [13] = assay: Induction of T-cell mediated apoptosis in human HCC827 cells cocultured with PMA-stimulated Jurkat T cells assessed as mortality rate at 8 uM incubated for 48 hrs by CCK-8 assay; type: functional
HCC827 [14] = assay: Cytotoxicity against human HCC827 cells at 1 to 32 uM incubated for 48 hrs by CCK-8 assay; type: functional, cell-based; conditions: dose 1-32 µM
[15] = Oral bioavilability in Sprague-Dawley rat at 50 mg/kg measured upto 48 hrs by LC-MS/MS analysis; type: ADME, organism-based; conditions: in vivo

N#Cc1cncc(COc2cc(OCc3cccc(-c4ccc5c(c4)OCCO5)c3C(F)F)ccc2CNCCO)c1
inhibition in vivo at 50 mg/kg (MC-38 [1]): 57.3% | CL [2]: 19.8 mL/min/kg | Cmax [3]: 4560 ng/mL | inhibition in vivo at 50 mg/kg (MC-38 [4]): 62.4% | Activity (MC-38 [5]): Active | Activity (MDA-MB-231): 64% | Activity [6]: Non-Toxic | Cmax [7]: 13500 ng/mL | AUC(0-t) at 48 h [8]: 41800 ng·h/mL | CL [9]: 12 mL/min/kg | Tmax [10]: 7.8 min | Activity [11]: Non-Toxic | Activity (MC-38 [12]): Active | Activity (HCC827 [13]): 51.7% | Activity (HCC827 [14]): inactive | bioavailability [15]: 65.3%
